The experiment in a line: DPPH radical scavenging ability of nanoparticles by time. The experiment is classed as biochemical. On the procedure: DPPH radical scavenging ability was measured to confirm the effect of antioxidant physiological activity according to the sustained-release release of nanoparticles according to the coating layer structure and amount of hydrogel.
50 μL of 0.2 mM 1,1-diphenyl-2-picrylhydrazyl (DPPH) was added to 100 ul of each sample solution. Then, it was stirred and reacted at room temperature for 30 minutes, and then the ELISA reader (Powerwave XS2, Biotek, USA) was used to measure the absorbance at […]. The control groups were Butylated Hydroxynisole (BHA) and Catechin.
Next, using Equation 2 below, the DPPH radical scavenging ability of each nanoparticle was calculated. DPPH radical scavenging ability (%)=(1−absorbance of sample added group/absorbance of no added group)×100 [Equation 2]

The text below walks through data of patent publication US12318462B2, “Multi-coated nanoparticles comprising multiple coating layers of chitosan and polyglutamic acid, composition for skin care comprising the same and method for manufacturing the same” (BINOTEC co., ltd., priority 2020, dated 2025).

As for `COc1ccc(O)c(C(C)(C)C)c1` [BHA, Butylated Hydroxynisole], the “DPPH radical scavenging ability” value by setting is: (18 hr) 93.2084%; (24 hr) 82.3362%; (48 hr) 47.0031%.

For Catechin, the “DPPH radical scavenging ability” value is 93.4211% (18 hr), 87.4680% (24 hr) and 70.5607% (48 hr).
